Experimental data taken from patent US20250382556A1, “MODULATION OF THE BRANCHED-CHAIN METABOLITE CONTENT OF FRUITS AND VEGETABLES” (BOARD OF TRUSTEES OF MICHIGAN STATE UNIVERSITY, priority 2024, published 2025).

Test system: apple peel
Assay: Free amino acid content of apple peel via UPLC-MS/MS after AHAS inhibitor treatment
Format: in vivo, Malus x domestica Borkh.
Parameters: key to free asparagine content compared to control / free aspartate content compared to control / free cysteine content compared to control / free glutamate content compared to control / free glutamine content compared to control / free glycine content compared to control / free histidine content compared to control / free lysine content compared to control / free methionine content compared to control / free phenylalanine content compared to control / free serine content compared to control / free threonine content compared to control / free tryptophan content compared to control / free tyrosine content compared to control / free valine content compared to control / total free amino acid content compared to control / free alanine content compared to control / free arginine content compared to control: —: Dash indicates no significant difference between treatments
Conditions: for free alanine content compared to control / free arginine content compared to control / free asparagine content compared to control / free aspartate content compared to control / free cysteine content compared to control / free glutamate content compared to control / free glutamine content compared to control / free glycine content compared to control / free histidine content compared to control / free isoleucine content compared to control / free leucine content compared to control / free lysine content compared to control / free methionine content compared to control / free phenylalanine content compared to control / free serine content compared to control / free threonine content compared to control / free tryptophan content compared to control / free tyrosine content compared to control / free valine content compared to control / total free amino acid content compared to control: 1 mM daily
Method: Whole apple fruit, freshly harvested and at an early stage of ripening (‘ripening’), were held at room temperature (22° C.) and rubbed daily with 3 mL of a freshly made 1mM solution of the inhibitor rimsulfuron (N-((4,6-dimethoxypyrimidin-2-yl)aminocarbonyl)-3-(ethylsulfonyl)-2-pyridinesulfonamide, made from DuPont MATRIX® SG, 25% w/w active ingredient; 0.1% Tween 20) or water solution containing 0.1% Tween 20 before preparation with further treatments. Flowering quince fruit were smaller than the apple fruit and had 2 mL of the control and treatment solutions applied daily at 22° C. ‘Gala’, ‘Empire’, and ‘Jonagold’ apple fruit were treated for four, nine, and seven days before further preparation, respectively. Flowering quince fruit were treated for six days before analysis. Headspace volatile emissions were monitored for three or four representative fruits during the incubation/treatment period to determine appropriate times for further treatments. During method testing, 1 mM solutions of the imidazolinone imazamox was also assessed with apple fruit (2-[4,5-dihydro-4-methyl-4-(1-methylethyl)-5-oxo-1H-imidazol-2-yl]-5-(methoxymethyl)-3-pyridinecarboxylic acid, made from RAPTOR®, 12.1% w/w active ingredient; 0.1% Tween 20).
After volatile analysis, apple peel disks, collected peel of flowering quince, and ‘Valery’ pulp section samples were held at −80° C. for further amino acid analysis.
Frozen samples were ground to a powder in liquid nitrogen-chilled mortar and pestles. About 500 mg of tissue was vortexed for 10 sec in 2 mL of room temperature (22° C.) extraction solution (1:1:1 water:acetonitrile:ethanol, v/v/v) spiked with 2 nmoles of U-^13C,^15N labeled amino acids (MilliporeSigma) as internal standards and heated for 15 min in a 65° C. water bath. Extracts were briefly chilled on ice before centrifugation at 4400×g for 15 min at 4° C. The supernatant was filtered by centrifugation (0.2 μm nylon centrifugal filter; Costar, Corning) at 21000×g for 5 min at room temperature. 10 μL of the filtrate was transferred to an autosampler vial and diluted 100-fold with 990 μL of 10.1 mM perfluorohexanoic acid (PFHA) spiked with […] of internal standard. Thus the final concentration of internal standard was ˜2 μM.
An amino acid standard series was prepared from a premade mixture (MilliporeSigma, AAS18) that contained equal molar amounts of cystine and all 20 proteinogenic amino acids save for tryptophan, asparagine, glutamine, and cysteine. An equal molar mixture of tryptophan, asparagine, glutamine, and cysteine was subsequently prepared. To avoid dilution errors or artefacts from differing buffers, these amino acid stocks were aliquoted and desiccated such that a five-part standard series ranging from 250 μM to 25 nM would be produced upon resuscitation with 10 μL of spiked extraction buffer and 990 μL spiked PFHA solution.
Samples and amino acids were held overnight at −20° C. before analysis. Amino acids were analyzed with a Xevo TQ-S Micro UPLC (H-Class)-MS/MS (Waters) at the Michigan State University Mass Spectrometry and Metabolomics Core. Conditions were as follows. HPLC column: Acquirt UPLC HSS T3, 2.1×100 mm, 1.7 μm particle size (Waters), with a 0.2 μm pre-column filter (Waters). Mobile phase: A) 10 mM PFHA in water, B) acetonitrile. LC gradient: linear gradient, slope setting=6, flow rate=0.3 mL·min^−1, step 1) 0 min, 100% A, 0% B, 2) 1 min, 100% A, 0% B, 3) 8 min, 35% A, 65% B, 4) 8.01 min, 10% A, 90% B, 5) 9 min, 10% A, 90% B, 6) 9.01 min, 100% A, 0% B, 7) 13 min, 100% A, 0% B. Column temp: 40° C. Autosampler temp: 10° C. Injection volume: 10 μL. Tune parameters: electrospray ionization, standard ESI probe, capillary voltage=+1.0 kV, source temp=120° C., desolvation temp=350° C., desolvation gas=800 L·hr^−1, cone gas=40 L·hr^−1. MS collection was split into three phases and were adjusted after checking the retention time of several samples; however proline was missed for apple and flowering quince samples. […]

[1] = ripening Empire apple peel, nine days
[2] = ripening Gala apple peel, four days
[3] = ripening Jonagold apple peel, seven days

SMILES: CCS(=O)(=O)c1cccnc1S(=O)(=O)NC(=O)Nc1nc(OC)cc(OC)n1 [rimsulfuron, N-((4,6-dimethoxypyrimidin-2-yl)aminocarbonyl)-3-(ethylsulfonyl)-2-pyridinesulfonamide]
- free alanine content compared to control [1]: —
- free arginine content compared to control [1]: —
- free asparagine content compared to control [1]: —
- free aspartate content compared to control [1]: —
- free cysteine content compared to control [1]: 261.5 ± 32.5%
- free glutamate content compared to control [1]: —
- free glutamine content compared to control [1]: —
- free glycine content compared to control [1]: —
- free histidine content compared to control [1]: —
- free isoleucine content compared to control [1]: 3.3 ± 0.7%
- free leucine content compared to control [1]: 422.8 ± 100.1%
- free lysine content compared to control [1]: —
- free methionine content compared to control [1]: 212.7 ± 26.8%
- free phenylalanine content compared to control [1]: —
- free serine content compared to control [1]: —
- free threonine content compared to control [1]: —
- free tryptophan content compared to control [1]: —
- free tyrosine content compared to control [1]: —
- free valine content compared to control [1]: —
- total free amino acid content compared to control [1]: —
- free alanine content compared to control [2]: 273.4 ± 27.4%
- free arginine content compared to control [2]: —
- free asparagine content compared to control [2]: —
- free aspartate content compared to control [2]: 231.8 ± 18.0%
- free cysteine content compared to control [2]: —
- free glutamate content compared to control [2]: 146.3 ± 5.6%
- free glutamine content compared to control [2]: 250.7 ± 33.5%
- free glycine content compared to control [2]: —
- free histidine content compared to control [2]: —
- free isoleucine content compared to control [2]: 16.4 ± 6.3%
- free leucine content compared to control [2]: 214.4 ± 42.2%
- free lysine content compared to control [2]: —
- free methionine content compared to control [2]: —
- free phenylalanine content compared to control [2]: —
- free serine content compared to control [2]: 300.1 ± 27.7%
- free threonine content compared to control [2]: 182.3 ± 14.2%
- free tryptophan content compared to control [2]: —
- free tyrosine content compared to control [2]: —
- free valine content compared to control [2]: —
- total free amino acid content compared to control [2]: 191.5 ± 20.4%
- valine following treatment (ripening Gala, Empire, Jonagold peels): unaffected
- free alanine content compared to control [3]: —
- free arginine content compared to control [3]: —
- free asparagine content compared to control [3]: —
- free aspartate content compared to control [3]: —
- free cysteine content compared to control [3]: 410.6 ± 49.6%
- free glutamate content compared to control [3]: —
- free glutamine content compared to control [3]: —
- free glycine content compared to control [3]: —
- free histidine content compared to control [3]: —
- free isoleucine content compared to control [3]: 4.1 ± 1.3%
- free leucine content compared to control [3]: 393.2 ± 74.4%
- free lysine content compared to control [3]: —
- free methionine content compared to control [3]: 218.3 ± 31.0%
- free phenylalanine content compared to control [3]: —
- free serine content compared to control [3]: 191.9 ± 32.1%
- free threonine content compared to control [3]: —
- free tryptophan content compared to control [3]: —
- free tyrosine content compared to control [3]: —
- free valine content compared to control [3]: —
- total free amino acid content compared to control [3]: —
- reduction of isoleucine in the peels (ripening fruit of the three cultivars (Gala, Empire, Jonagold), on average): 92.1%
- increase of leucine content (three ripening cultivars, on average): 3.4 fold
